Measured values reported in US20150011751A1, “NOVEL TRIAZINE DERIVATIVE” (CARNA BIOSCIENCES, INC., priority 2012, published 2015).

Target: Dephosphorylated BTK (Homo sapiens, UniProt Q06187)
Test: Test of activity inhibition against dephosphorylated BTK (mobility shift assay)
Experimental: Kinase activity was measured by a mobility shift assay (MSA) method using QuickScout Screening Assist (trademark) MSA (commercially available kit, manufactured by Carna Biosciences, Inc.). FITC-labeled SRCtide peptide supplied with the kit was used as a substrate of a kinase reaction.
IC50 value was calculated by regression analysis of the inhibition ratio and the test compound concentration (logarithm).
Dephosphorylated BTK was obtained by adding a A protein phosphatase (Code No. P0753S, manufactured by New England BioLabs Inc.) and MnCl2 to a biotinylated BTK protein BTN-BTK (manufactured by Carna Biosciences, Inc.) enzyme solution so as to adjust the concentrations to 10 U/μg and 2 mM, respectively, reacting the mixture at 4° C. overnight, removing the A protein phosphatase through anti-[sequence]-tag antibody agarose gel chromatography, and performing buffer exchange using 10DG Desalting Column.

Sequence of Dephosphorylated BTK (Q06187 whole entry): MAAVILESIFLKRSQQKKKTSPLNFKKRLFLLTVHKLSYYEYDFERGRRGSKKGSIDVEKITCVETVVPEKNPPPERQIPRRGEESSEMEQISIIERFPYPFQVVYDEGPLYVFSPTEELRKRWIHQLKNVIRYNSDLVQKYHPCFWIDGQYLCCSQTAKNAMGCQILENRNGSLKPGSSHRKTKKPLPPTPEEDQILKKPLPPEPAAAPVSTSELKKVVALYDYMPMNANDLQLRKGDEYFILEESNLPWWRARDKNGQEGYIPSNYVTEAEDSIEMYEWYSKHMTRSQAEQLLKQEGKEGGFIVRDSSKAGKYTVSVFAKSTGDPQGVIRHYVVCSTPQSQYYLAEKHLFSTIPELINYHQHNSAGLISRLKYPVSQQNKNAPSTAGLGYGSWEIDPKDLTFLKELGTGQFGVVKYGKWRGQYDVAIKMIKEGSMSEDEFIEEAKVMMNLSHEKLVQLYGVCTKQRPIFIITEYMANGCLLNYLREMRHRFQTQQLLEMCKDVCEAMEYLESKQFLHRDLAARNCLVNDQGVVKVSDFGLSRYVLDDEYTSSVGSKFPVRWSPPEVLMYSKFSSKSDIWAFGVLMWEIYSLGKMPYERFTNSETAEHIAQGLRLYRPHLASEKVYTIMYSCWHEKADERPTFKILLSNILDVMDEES

| SMILES | IC50 |
| --- | --- |
| Cc1c(NC(=O)c2ccc(C(C)(C)C)cc2)cccc1-c1nc(N)nc(Nc2ccc(N3CCCOCC3)cc2)n1 [Example 86, N-[3-(4-{[4-(1,4-Oxaze-pan-4-yl)phenyl]amino}-6-amino-1,3,5-tria-zin-2-yl)-2-methyl-phenyl]-4-(tert-butyl)benzamide] | 4 nM |
| Cc1c(NC(=O)c2ccc(C(C)(C)C)cc2)cccc1-c1nc(N)nc(Nc2ccc(N3CCC(O)CC3)cc2)n1 [Example 87, N-[3-(4-Amino-6-{[4-(4-hydroxypiperidin-1-yl)phenyl]amino}-1,3,5-triazin-2-yl)-2-meth-ylphenyl]-4-(tert-butyl)benzamide] | 1.4 nM |
| CN1CCN(C)C(c2ccc(Nc3nc(N)nc(-c4cccc(NC(=O)c5ccc(C(C)(C)C)cc5)c4CO)n3)cc2)C1=O (stereo not drawn) [Example 89, N-[3-(4-Amino-6-{[4-(1,4-dimethyl-3-oxo-piperazin-2-yl)phenyl]ami-no}-1,3,5-triazin-2-yl)-2-(hydroxymethyl)phenyl]-4-(tert-butyl) benzamide] | 0.6 nM |
| Cc1c(NC(=O)c2ccc(C(C)(C)C)cc2)cccc1-c1nc(N)nc(Nc2ccc(N3CCN(CCO)CC3)cc2)n1 [Example 93, N-{3-[4-Amino-6-({4-[4-(2-hydroxyethyl)piperazin-1-yl]phenyl}ami-no)-1,3,5-triazin-2-yl]-2-methylphenyl}-4-(tert-butyl)benzamide] | 1.3 nM |
| CC(C)(C)c1ccc(C(=O)Nc2cccc(-c3nc(N)nc(Nc4ccc(CN5CCC(O)CC5)cc4)n3)c2CO)cc1 [Example 94, N-{3-[4-Amino-6-({4-[(4-hydroxypiperidin-1-yl)methyl]phenyl}ami-no)-1,3,5-triazin-2-yl]-2-(hydroxymethyl)phe-nyl}-4-(tert-butyl) benzamide] | 0.4 nM |
| Nc1nc(Nc2ccc(N3CCOCC3)cc2)nc(-c2cccc(NC(=O)c3ccc4c(c3)CCCC4)c2CO)n1 [Example 102, N-(3-{4-Amino-6-[(4-morpholinophenyl)amino]-1,3,5-triazin-2-yl}-2-(hydroxymethyl)phe-nyl)-5,6,7,8-tetrahydro-naphthalene-2-carbox-amide] | 8.7 nM |
| CC(C)(C)OC(=O)N1CCN(c2ccc(Nc3nc(N)nc(-c4cccc(NC(=O)c5ccc(C(C)(C)C)cc5)c4CO)n3)cc2)CC1 [Example 104, tert-Butyl 4-{4-[(4-amino-6-{3-[4-(tert-butyl)benzamido]-2-(hydroxymethyl)phenyl}-1,3,5-triazin-2-yl)amino]phenyl} piperazine-1-carboxylate] | 5 nM |
| CC(C)(C)c1ccc(C(=O)Nc2cccc(-c3nc(N)nc(Nc4ccc(N5CCOC(CO)C5)cc4)n3)c2CO)cc1 (stereo not drawn) [Example 106, N-{3-[4-Amino--({4-[2-(hydroxymethyl)morpho-lino]phenyl}amino)-1,3,5-triazin-2-yl]-2-(hydroxymethyl)phenyl}-4-(tert-butyl)benzamide] | 0.7 nM |
| CC(C)(C)c1ccc(C(=O)Nc2cccc(-c3nc(N)nc(Nc4ccc(N5CCC(O)CC5)cc4)n3)c2CO)cc1 [Example 107, N-[3-(4-Amino-6-{[4-(4-hydroxypiperidin-1-yl)phenyl]amino}-1,3,5-triazin-2-yl)-2-(hy-droxymethyl)phenyl]-4-(tert-butyl)benzamide] | 0.8 nM |
| CC(=O)OCc1c(NC(=O)c2ccc(C(C)(C)C)cc2)cccc1-c1nc(N)nc(Nc2ccc(O)cc2)n1 [Example 110, 2-{4-Amino-6-[(4-hydroxy-phenyl)amino]-1,3,5-triazin-2-yl}-6-[4-(tert-butyl)benzamido] benzyl acetate] | 17.9 nM |
| CC(C)(C)c1ccc(C(=O)Nc2cccc(-c3nc(N)nc(Nc4ccc(CO)cc4)n3)c2CO)cc1 [Example 111, N-[3-(4-Amino-6-{[4-(hydroxymethyl)phenyl]amino}-1,3,5-triazin-2-yl)-2-(hydroxymeth-yl)phenyl]-4-(tert-butyl) benzamide] | 1 nM |
| CC(C)(C)c1ccc(C(=O)Nc2cccc(-c3nc(N)nc(Nc4ccc(NS(C)(=O)=O)cc4)n3)c2CO)cc1 [Example 112, N-[3-(4-Amino-6-{[4-(meth-ylsulfonamido)phe-nyl]amino}-1,3,5-tria-zin-2-yl)-2-(hydroxymeth-yl)phenyl]-4-(tert-butyl)benzamide] | 1.1 nM |
| CC(C)(C)c1ccc(C(=O)Nc2cccc(-c3nc(N)nc(Nc4ccc(O)c(F)c4)n3)c2CO)cc1 [Example 113, N-(3-{4-Amino-6-[(3-fluoro-4-hydroxyphenyl)amino]-1,3,5-triazin-2-yl}-2-(hydroxymeth-yl)phenyl)-4-(tert-butyl)benzamide] | 2.6 nM |
| CC(C)(C)c1ccc(C(=O)Nc2cccc(-c3nc(N)nc(Nc4ccc(N5CCNC(=O)C5)cc4)n3)c2CO)cc1 [Example 114, N-[3-(4-Amino-6-{[4-(3-oxopiperazin-1-yl)phe-nyl]amino}-1,3,5-tri-azin-2-yl)-2-(hydroxy-methyl)phenyl]-4-(tert-butyl)benzamide] | 1 nM |
| CC(C)(C)c1ccc(C(=O)Nc2cccc(-c3nc(N)nc(Nc4ccc(S(N)(=O)=O)cc4)n3)c2CO)cc1 [Example 118, N-(3-{4-Amino-6-[(4-sulfa-moylphenyl)amino]-1,3,5-triazin-2-yl}-2-(hydroxymethyl)phe-nyl)-4-(tert-butyl)benz-amide] | 0.8 nM |
| CC(C)(C)c1ccc(C(=O)Nc2cccc(-c3nc(N)nc(Nc4cccc(CO)c4)n3)c2CO)cc1 [Example 122, N-[3-(4-Amino-6-{[3-(hy-droxymethyl)phenyl]amino}-1,3,5-triazin-2-yl)-2-(hydroxymethyl)phenyl]-4-(tert-butyl)benzamide] | 0.8 nM |
| CC(C)(C)c1ccc(C(=O)Nc2cccc(-c3nc(N)nc(Nc4ccc(N5CCS(=O)(=O)CC5)cc4)n3)c2CO)cc1 [Example 124, N-[3-(4-Amino-6-{[4-(1,1-dioxidothiomorpho-lino)phenyl]amino}-1,3,5-triazin-2-yl)-2-(hy-droxymethyl)phenyl]-4-(tert-butyl)benzamide] | 0.5 nM |

The remaining compounds from weak to strong by IC50, led by results:

| IC50 | SMILES |
| --- | --- |
| 10.6 nM | CC(C)(C)c1ccc(C(=O)Nc2cccc(-c3nc(N)nc(Nc4ccc(N5CCOCC5)cn4)n3)c2CO)cc1 [Example 99, N-(3-{4-Amino-6-[(5-morpholinopyridin-2-yl)amino]-1,3,5-triazin-2-yl}-2-(hydroxymeth-yl)phenyl)-4-(tert-butyl)benzamide] |
| 9.4 nM | CC(C)(C)c1ccc(C(=O)Nc2cccc(-c3ncnc(Nc4ccc(C(=O)N5CCOCC5)cc4)n3)c2CO)cc1 [Example 115, 4-(tert-Butyl)-N-[2-(hy-droxymethyl)-3-(4-{[4-(morpholine-4-carbo-nyl)phenyl]amino}-1,3,5-triazin-2-yl)phe-nyl]benzamide] |
| 7.7 nM | COc1c(NC(=O)c2ccc(C(C)(C)C)cc2)cccc1-c1nc(N)nc(Nc2ccc(N3CCOCC3)cc2)n1 [Example 96, N-(3-{4-Amino-6-[(4-morpholinophenyl)amino]-1,3,5-triazin-2-yl}-2-methoxyphenyl)-4-(tert-butyl)benzamide] |
| 5.5 nM | CC(C)(C)OC(=O)Nc1ccc(Nc2nc(N)nc(-c3cccc(NC(=O)c4ccc(C(C)(C)C)cc4)c3CO)n2)cc1 [Example 120, tert-Butyl {4-[(4-amino-6-{3-[4-(tert-butyl)benzamido]-2-(hydroxymethyl)phe-nyl}-1,3,5-triazin-2-yl)amino]phenyl}carbamate] |
| 1.8 nM | Cc1c(NC(=O)c2ccc(C(C)(C)C)cc2)cccc1-c1nc(N)nc(Nc2ccc(N3CCNCC3)cc2)n1 [Example 88, N-[3-(4-Amino-6-{[4-(piperazin-1-yl)phenyl]amino}-1,3,5-triazin-2-yl)-2-methylphenyl]-4-(tert-butyl)benza-mide] |
| 1.4 nM | Cc1cc(Nc2nc(N)nc(-c3cccc(NC(=O)c4ccc(C(C)(C)C)cc4)c3CO)n2)cc(C)c1O [Example 123, N-(3-{4-Amino-6-[(4-hy-droxy-3,5-dimethyl-phenyl)amino]-1,3,5-tri-azin-2-yl}-2-(hydroxy-methyl)phenyl)-4-(tert-butyl)benzamide] |
| 1.2 nM | CC(C)(C)c1ccc(C(=O)Nc2cccc(-c3nc(N)nc(Nc4cccc(O)c4)n3)c2CO)cc1 [Example 121, N-(3-{4-Amino-6-[(3-hy-droxyphenyl)amino]-1,3,5-triazin-2-yl}-2-(hydroxymethyl)phenyl)-4-(tert-butyl)benza-mide] |
| 1.1 nM | COc1cc(Nc2nc(N)nc(-c3cccc(NC(=O)c4ccc(C(C)(C)C)cc4)c3CO)n2)cc(OC)c1OC [Example 91, N-(3-{4-Amino-6-[(3,4,5-trimethoxyphenyl)ami-no]-1,3,5-triazin-2-yl}-2-(hydroxymethyl)phenyl)-4-(tert-butyl) benzamide] |
| 0.9 nM | Cc1c(NC(=O)c2ccc(C(C)(C)C)cc2)cccc1-c1nc(N)nc(Nc2ccc(N3CCOC(CO)C3)cc2)n1 (stereo not drawn) [Example 92, N-{3-[4-Amino-6-({4-[2-(hydroxymethyl)morpho-lin]phenyl}amino)-1,3,5-triazin-2-yl]-2-methylphenyl}-4-(tert-butyl)benzamide] |
| 0.9 nM | COCCN(CCOC)Cc1ccc(Nc2nc(N)nc(-c3cccc(NC(=O)c4ccc(C(C)(C)C)cc4)c3CO)n2)cc1 [Example 105, N-(3-{4-Amino-6-[(4-{[bis (2-methoxyethyl)ami-no]methyl}phenyl)ami-no)-1,3,5-triazin-2-yl]-2-(hydroxymethyl)phenyl}-4-(tert-butyl) benzamide] |
| 0.9 nM | Cc1cc(Nc2nc(N)nc(-c3cccc(NC(=O)c4ccc(C(C)(C)C)cc4)c3CO)n2)ccc1O [Example 117, N-(3-{4-Amino-6-[(4-hy-droxy-3-methylphenyl)amino]-1,3,5-triazin-2-yl)-2-(hydroxymeth-yl)phenyl)-4-(tert-butyl)benzamide] |
| 0.8 nM | CC(=O)Nc1ccc(Nc2nc(N)nc(-c3cccc(NC(=O)c4ccc(C(C)(C)C)cc4)c3CO)n2)cc1 [Example 119, N-(3-{4-[(4-Acetamido-phenyl)amino]-6-amino-1,3,5-triazin-2-yl}-2-(hydroxymethyl)phe-nyl)-4-(tert-butyl)benz-amide] |
| 0.7 nM | COCCOc1ccc(Nc2nc(N)nc(-c3cccc(NC(=O)c4ccc(C(C)(C)C)cc4)c3CO)n2)cc1OCCOC [Example 90, N-[3-(4-Amino-6-{[3,4-bis(2-methoxyethoxy)phenyl]amino}-1,3,5-tri-azin-2-yl)-2-(hydroxy-methyl)phenyl]-4-(tert-butyl)benzamide] |
